Data reported in patent US7192982B2, “Modulators of peroxisome proliferator activated receptors” (Ligand Pharmaceuticals, Inc., priority 2001, dated 2007).

Key:
[1] = tested on: mice, transgenic for human apoAI; assay: Evaluation of triglyceride and cholesterol levels in HuapoAI transgenic mice; assay type: in vivo; details: hu apoAI transgenic mice
Protocol: Five to six week old male mice, transgenic for human apoAI [C57B1/6-tgn(apoa1)1rub, Jackson Laboratory, Bar Harbor, Me.] were housed five per cage (10″×20″×8″ with aspen chip bedding) with food (Purina 5001) and water available at all times. After an acclimation period of 2 weeks, animals were individually identified by ear notches, weighed and assigned to groups based on body weight. Beginning the following morning, mice were dosed daily by oral gavage for 7 days using a 20 gauge, 1½″ curved disposable feeding needle. Treatments were test compounds (30 mg/kg), a positive control (fenofibrate, 100 mg/kg) or vehicle [1% carboxymethylcellulose (w/v)/0.25% Tween80 (w/v); 0.2 ml/mouse]. Prior to termination on day 7, mice were weighed and dosed. Three hours after dosing, animals were anesthetized by inhalation of isoflurane (2–4%) and blood obtained via cardiac puncture (0.7–1.0 ml). Whole blood was transferred to serum separator tubes (Vacutainer SST), chilled on ice and permitted to clot. Serum, was obtained after centrifugation at 4° C. and frozen until analysis for triglycerides, total cholesterol, compound levels and serum lipoprotein profiled by fast protein liquid, chromatography (FPLC) coupled to an inline detection system. After sacrifice by cervical dislocation, the liver, heart and epididymal fat pads were excised and weighed.
Glucose was measured colorimetrically by using commercially purchased reagents (Sigma #315-500). According to the manufacturers, the procedures were modified from published work (McGowan et al. Clin Chem, 20:470–5 (1974) and Keston, A. Specific colorimetric enzymatic analytical reagents for glucose. Abstract of papers 129th Meeting ACS, 31C (1956).); and depend on the release of a mole of hydrogen peroxide for each mole of analyte coupled with a color reaction first described by Trinder (Trinder, P. Ann Clin Biochem, 6:24 (1969)). The absorbance of the dye produced was linearly related to the analyte in the sample. The assays was further modified for use in a 96 well format. Standards (Sigma #339-11, Sigma #16-11, and Sigma #CC0534 for glucose, triglycerides and total cholesterol, respectively), quality control plasma (Sigma # A2034), and samples-(2 or 5 μl well) were measured in duplicate using 200 μl of reagent. An additional aliquot of sample, pipetted to a third well and diluted in 200 μl water, provided ai blank for each specimen. Plates were incubated at room temperature (18, 15, and 10 minutes for glucose, triglycerides and total cholesterol, respectively) on a plate shaker and absorbance read at 500 nm (glucose and total cholesterol) or 540 nm (triglycerides) on a plate reader. Sample absorbance was compared to a standard curve (100–800, 10–500, and 100–400 mg/dl for glucose, triglycerides and total cholesterol, respectively). Values for the quality control sample wee consistently within the expected range and the coefficient of variation for samples is below 10%. All samples from an experiment were assayed at the same time to minimize inter-assay variability.
Serum lipoproteins were separated and cholesterol was quantitated with an in-line detection system. Sample was applied to a Superose® 6 HR 10/30 size exclusion column (Amersham Pharmacia Biotech) and eluted with phosphate buffered saline-EDTA at 0.5 ml/min. Cholesterol reagent (Roche Diagnostics Chol/HP 704036) at 0.16 ml/min was mixed with the column effluent through a T-connection, and the mixture was passed through a 15 m×0.5 mm id knitted tubing reactor immersed in a 37° C. water bath. The colored product produced in the presence of cholesterol was monitored in the flow stream at 505 nm, and the analog voltage from the monitor was converted to a digital signal for collection and analysis. The change in voltage corresponding to change in cholesterol concentration was plotted against time, and the area under the curve corresponding to the elution of VLDL, LDL and HDL was calculated (Perkin Elmer Turbochrome software).

| Structure (SMILES) | melting point | mean percent increase of HDLc ([1]; FPLC of pooled sera, 100 mg/kg oral daily for 7 days, versus vehicle) | high-density lipoprotein cholesterol (HDLc) peak area ([1]; FPLC of pooled sera, 100 mg/kg oral daily for 7 days, vehicle 47 v-sec to 62 v-sec) | mean elevation of total serum cholesterol ([1]; 100 mg/kg oral gavage daily for 7 days, versus vehicle) | average total serum cholesterol values ([1]; 100 mg/kg oral gavage daily for 7 days, vehicle about 140 to 180 mg/dl) | mean reduction of triglycerides ([1]; serum, 100 mg/kg oral gavage daily for 7 days, versus vehicle) | average triglycerides values ([1]; serum, 100 mg/kg oral gavage daily for 7 days, vehicle about 60 to 80 mg/dl) |
| --- | --- | --- | --- | --- | --- | --- | --- |
| CO[C@@H](Cc1ccc(C#CCOc2ccc(-c3ccccc3)cc2)cc1)C(=O)O [Example 1, (2S)-3-{4-[3-(Biphenyl-4-yloxy)-prop-1-ynyl]-phenyl}-2-methoxy-propionic acid] | 111 to 112 °C |  |  |  |  |  |  |
| CC(C)OC(=O)C(C)(C)Oc1ccc(C(=O)c2ccc(Cl)cc2)cc1 [fenofibrate] |  | 48% | 68–96 v-sec | 41% | 190 to 280 mg/dL | 37% | 33 to 58 mg/dL |
